Data taken from a melting point compilation (Tetko et al.).

SMILES | melting point
Cn1c(=O)c(C2=NNC(=O)C2=NNc2ccc([N+](=O)[O-])cc2)c(O)c2ccccc21 | 300 °C
O=[N+]([O-])c1cc([N+](=O)[O-])c(C2CO2)cc1C1CO1 (centres undefined) | 153 to 154 °C
COc1ccc(C(=O)C2=NOC3C(=O)N(c4ccc(C(=O)O)cc4)C(=O)C23)cc1 (centres undefined) | 199 °C
COc1cc(OC(C)=O)c2c(=O)c(OC(C)=O)c(-c3ccc(OCc4ccccc4)c(OC(C)=O)c3)oc2c1 | 182 to 192 °C
Nc1ncc(F)cc1F | 57 °C
Oc1cccc2cc3cccc(O)c3c(O)c12 | 178 °C
Cc1ccc(N=C2NCCN2)c(Cl)c1 | 149 °C
CC(C)N(C(=O)SCC(Cl)=C(Cl)Cl)C(C)C | 29 °C
N#Cc1cccc(-c2cccs2)c1 | 58 to 60 °C
CCN(CC)CC(O)CO (centres undefined) | -30 °C
c1ccc2sc(SN(C3CCCCC3)C3CCCCC3)nc2c1 | 99.8 °C
Cc1nc2scc(-c3ccccc3)c2c(=O)n1NC(=O)c1ccccc1Cl | 209 to 210 °C
OCc1ccc2ncccc2c1 | 79 to 80 °C
CC(C)CC(N)C(=O)Nc1ccc([N+](=O)[O-])cc1 (centres undefined) | 90 °C
Ic1cccc(OCc2ccccc2)c1 | 51 °C
Cc1ccc(-c2nnc(CCl)o2)cc1 | 121 to 123 °C
Cc1nc2ccccc2nc1-c1cc(-c2nc3ccccc3nc2C)c([N+](=O)[O-])cc1[N+](=O)[O-] | 239 °C
Clc1ccc2nccnc2c1 | 64 °C
Nc1cscc1S(=O)(=O)c1ccccc1 | 125 to 126 °C
CC(=O)Nc1ccc(Br)cc1C(=O)O | 223 °C
N#CCC(=O)Nc1ccccc1 | 198 to 202 °C
O=Cc1cc(Cl)c(O)c(Cl)c1 | 154 to 156 °C
NNc1cc(Cl)cc(Cl)c1 | 115 °C

SMILES | melting point
c1ccc(-c2c[nH]cn2)cc1 | 144 °C
CCCOc1c(Cl)cc(C(=O)O)cc1Cl | 129 to 132 °C
Cc1ccccc1N=O | 73.5 °C
COC(=O)CS | -3 °C
CC(=O)c1cccc(-c2ccccc2)c1 | 36 °C
O=[N+]([O-])c1c(O)ccc2ccccc12 | 104 °C
Ic1cc2ccccc2c2ccccc12 | 92 °C
Cc1nc(C)c(Br)s1 | 153 to 155 °C
Nc1cc([N+](=O)[O-])ccc1Br | 139 °C
Oc1ccnc(S)n1 | 300 °C
O=C(O)C1CC(=O)N(CCc2ccc(Cl)cc2)C1 (centres undefined) | 148 to 150 °C
CC(=O)OC1(c2ccccc2)Cc2ccccc21 (centres undefined) | 76 °C
Clc1c(Cl)c(Cl)c(C(Cl)Cl)c(Cl)c1Cl | 120 °C
Cc1ccc(-c2ccc(C)s2)s1 | 65 to 68 °C
CCc1n[nH]c2cc(-c3ccccc3)nn12 | 188 to 190 °C
CC(=O)OC1CCC2(C)C(CCC3C2CCC2(C)C3CCC(=O)C2(C)OC(C)=O)C1 (centres undefined) | 195 to 207 °C
COC(=O)Cc1c(Cl)[nH]c(C)c1C(=O)OC | 86 °C
O=S(=O)(Cl)c1sccc1C1OCCO1 | 93 to 94 °C
CCN(CC)C(=O)C1=C(C)NC(=O)NC1c1ccccc1 (centres undefined) | 181 °C
OCCCc1nc2cc(C(F)(F)F)ccc2[nH]1 | 134 to 135 °C
Cc1ccc2sc(S(=O)(=O)Cl)cc2c1 | 83 °C
C[C@]12CCC(=O)C=C1CCC[C@@H]2O | 57 °C
CSc1nc2ccccc2s1 | 44 °C

SMILES | melting point
CNC1CCC(c2ccc(Cl)c(Cl)c2)c2ccccc21 (centres undefined) | 244 °C
C1CCCCNCCC1 | -19 °C
c1ccc2c3c([nH]c2c1)CCCCC3 | 145 °C
O=C(C=NNc1ccccc1)c1ccc(C(=O)C=NNc2ccccc2)c([N+](=O)[O-])c1 | 100 °C
C/C(=N\O)c1ccc2c(c1)CCCC2 | 104 to 106 °C
N#CC1=C(C#N)C(=O)C(NCc2ccccc2)=C(Cl)C1=O | 232 to 234 °C
O=[N+]([O-])c1cc2c(cc1C/C(=N/Nc1ccccc1)c1ccccc1)n1n(-c3ccccc3)n21 | 197 to 198 °C
Nc1cc(C(F)(F)F)ccc1N1CCOCC1 | 135 to 137 °C
O=C(O)c1cccc2cccc(C(=O)O)c12 | 260 °C
CCCCCCCCCCCCC(=O)OC | 6.5 °C
CCCCCCCCCCCCCCCCCC(CC)c1ccccc1 (centres undefined) | 29.3 °C
CSc1sc(C#N)c2c1C(=O)CC(C)(C)C2 | 169 to 171 °C
CC(=O)OC(OC(C)=O)c1cccc([N+](=O)[O-])c1 | 72 °C
CCN(CC)C(=O)Nc1ccc(OCC(O)CNC(C)(C)C)c(C(C)=O)c1 (centres undefined) | 110 °C
O=C(O)C1(Cl)CC2C=CC1C2 (centres undefined) | 139 to 141 °C
CCOC(=O)/C(=N\Nc1ccc(Cl)cc1)C(=O)C(F)(F)F | 75 to 76 °C
Cc1ccc2c(O)c(-c3ccccc3)c(=O)[nH]c2c1 | 300 °C
O=CCC=O | 72 °C
COc1cc(N)ccc1Cl | 80 °C
O=C(NN=Cc1ccc([N+](=O)[O-])o1)c1ccc(O)cc1 | 298 °C
CC(C)C(O)C1(C)CCC(C(=O)O)C(C)(C)O1 (centres undefined) | 115 °C
CC(C)(C)OC(=O)N[C@H](C(=O)O)c1ccc(F)cc1 | 130 °C
Cc1cc(Cl)ccc1OCCCC(=O)O | 100 °C

SMILES | melting point
CC(/C=N/NC(N)=O)=N\NC(N)=O | 255 °C
CC(=O)NC(CCC(N)=O)C(=O)O (centres undefined) | 197 °C
Nc1cnccc1C(F)(F)F | 55 to 56 °C
NCc1cc(=O)[nH]o1 | 175 °C
COc1cc(C(=O)c2ccc(Cl)cc2)c([N+](=O)[O-])cc1OC | 142 °C
Clc1nccc2ccccc12 | 34 °C
c1ccc(SSc2ccccn2)nc1 | 58 °C
CC(C)CCCC(C)C1CC[C@@]2(C)C3=CCC4[C@H](C)[C@@H](O)CC[C@]4(C)C3=CC[C@]12C (some centres undefined) | 123 °C
CCCSP(=O)(OCC)Oc1ccc(Br)cc1Cl (centres undefined) | < 25 °C
CCOC(=O)CCC(N[P+]([O-])(OC)C(C)NC(=O)CCCCN1C(=O)c2ccccc2C1=O)C(=O)OCC (centres undefined) | 81 °C
C=C1CC1CC(N)C(=O)O (centres undefined) | 282 °C
Clc1ccccc1C=C1c2ccccc2-c2ccccc21 | 69.5 °C
O=C(O)c1ccc(Br)c(C(=O)O)c1 | 297 to 299 °C
O=CC(C=O)c1ccncc1 | 320 °C
N=C(N)NC(N)=O | 105 °C
S=C1NC(=S)C(c2ccccc2)(c2ccccc2)N1 | 263 °C
Nc1nnc(-c2ccccc2)c(Nc2ccc(Br)cc2)n1 | 203 °C
COc1ccc(C=CNC=O)cc1 | 132 °C
CC(C)(C)N(NC(=O)c1ccccc1)C(=O)c1ccccc1 | 178 °C
CCNCCS(=O)(=O)c1ccc(C)cc1 | 42 to 45 °C
Cc1ccc(S(=O)(=O)N(C)N=O)cc1 | 60 °C
CC(Br)C(=O)O (centres undefined) | 25 °C
O=C(Cl)c1cccc(-c2nccs2)c1 | 80 to 80.5 °C

SMILES | melting point
O=Cc1ccc2c(Br)cccc2c1 | 78 °C
N#CC(=Cc1ccc([N+](=O)[O-])cc1)C(N)=S | 311 °C
O=c1[nH]c2c(c(=O)n1C1CCCCC1)CCC2 | 316 °C
OCc1csc2ccc(Cl)cc12 | 93 to 94 °C
O=C(NC(CO)C(=O)OCc1ccccc1)OCc1ccccc1 (centres undefined) | 83 °C
c1ccc(C2CCCNC2)cc1 (centres undefined) | 14.5 °C
Nc1ccncc1Cl | 51 °C
O=C(O)c1ccc2c(c1)C(=O)c1ccccc1-2 | 341 °C
O=C(Cc1cc(Cl)c([N+](=O)[O-])cc1[N+](=O)[O-])c1ccccc1 | 133 °C
NC(CSc1ncccc1C(F)(F)F)=NO | 161 to 164 °C
C=CCN(CC=C)C(=O)COC(=O)c1ccccc1 | 42.5 °C
O=[N+]([O-])c1cccc(C=NO)c1 | 124 °C
Nc1ccnc(N)c1 | 107 °C
COc1ccccc1N/N=C1\C(=O)N(CN2CCCCC2)N=C1C | 148 °C
CC(C)(C)c1cc(N)cc(C(C)(C)C)c1 | 56 °C
O=C1c2ccccc2C(=O)c2c1cccc2[N+](=O)[O-] | 232 °C
Cc1ccc(-c2cc(NN=c3c(C)nc4ccccc4[nH]c3=O)[nH]n2)cc1 | 168 °C
CC1=CCC(C(C)C)=CC1 | -10 °C
C1=CC2C3C=CC(C3)C2C1 (centres undefined) | 33.6 °C
Ic1cc(I)cc(I)c1 | 184 °C
O=C1Cc2ccccc2C(=O)Cc2ccccc21 | 207 to 209 °C
O=C(O)/C=C/c1ccc2ccc(=O)[nH]c2c1 | 330 °C
CC(=O)OC1CCC2(C)C(CCC3(C)C2C(=O)C=C2C4CC(C)(C(=O)O)CCC4(C)CCC23C)C1(C)C (centres undefined) | 323 °C

SMILES | melting point
CC(C)CC(C)Br (centres undefined) | -94 °C
CC(C)(C)c1cc(N)c(O)c(C(C)(C)C)c1 | 161 °C
CCCCOC(N)=O | 51 to 56 °C
Fc1cccc(Br)n1 | 32 °C
CCCCCCCCc1ccc(O)cc1 | 45 °C
O=Cc1cccc(N2CCCC2)n1 | 63 to 65 °C
C=COCC(CC)CCCC (centres undefined) | -100 °C
COC(=O)c1ccc2cc(Br)ccc2c1 | 123 to 126 °C
CNCc1ccc(-c2noc(C)n2)cc1 | 51 to 53 °C
c1ccc2c(c1)CCc1ccccc1N2C1CN2CCC1CC2 (centres undefined) | 150 °C
CC(C)Nc1nc(Cl)nc(NC(C)C)n1 | 213 °C
CCCC(=O)c1ccc(NC(C)=O)cc1O | 85 to 87 °C
Cc1ccc2[nH]ccc2c1 | 60 °C
CCP(=O)(c1ccccc1)c1ccccc1 | 122 °C
CC(C)n1c(C(F)(F)F)nc2cc(C(=O)Cl)ccc21 | 102 °C
CN1C2CCC1CC(O)C2 (centres undefined) | 109 °C
O=C(O)C(Br)CBr (centres undefined) | 66.5 °C
O=C(O)c1csc(N2CCOCC2)n1 | 175 to 177 °C
Oc1cccnc1I | 193 °C
